Experimental data reported in patent publication US9505735B2, “Compounds for treating infectious diseases” (Whitehead Institute for Biomedical Research, priority 2012, dated 2016).
Several values for one entry are separate records, joined by “and”; a condition that tells them apart may be missing. Equal values may be shown once. Read-outs that look alike come from different tables or passages of the source.

Tests used:
[1] = system: Wildtype S. cerevisiae BY4741; assay: Antifungal susceptibility testing, wildtype yeast; format: cell-based; details: Saccharomyces cerevisiae, read-out: EC50 Avg
Procedure: Archives of all strains were maintained in 25% glycerol at −80° C. Standard S. cerevisiae lab strains W303, BY4741, BY4742 and BY4743 were used for experiments. The C. albicans wild type strain in FIG. 1 was CaI4, a standard laboratory strain (Fonzi, et al. (1993) Genetics 134, 717-728). The C. albicans fluconazole-resistant strains CaCi-2, CaCi-8 and CaCi17 were generously provided by Ted White and originally collected by Spencer Redding and colleagues (White, (1997) Antimicrob Agents Chemother 41, 1488-1494; White, (1997) Antimicrob Agents Chemother 41, 1482-1487; White, et al. (1997) Oral Dis 3 Suppl 1, S102-109). The sequenced C. albicans wild type strain, Sc5314 (Gillum, et al. (1984) Mol Gen Genet 198, 179-182) used in P-glucan experiments was a gift from John Perfect's lab. CaAmphR, an amphotericin B-resistant strain is from ATCC (#20095). Caspofungin-resistant strain Cfr1 was derived by plating Sc5314 on caspofungin plates and isolating resistant colonies. A. terreus was purchased from ATCC (MYA-3633). The C. glabrata strain CgL5c was obtained from John Bennett's lab. The YKO heterozygous diploid strain collection is from Open Biosystems and was generated in BY4743. Haploid deletion strains were from the Yeast Knock-out Deletion Collection and purchased from Invitrogen. The over-expression library was made by transforming BY4741 with the Harvard Institute of Proteomics Flexgene library.
(§1) Sensitivity to gepinacin was determined in 96-well, flat bottom microtiter plates using a modification of the NCCLS broth microdilution protocol CLS M27-A3 and RPMI as culture medium. Fungi were inoculated at ˜10^3 cells per ml and incubated for 48 hours at 37° C. after which plates were sealed, shaken and the optical density read at 600 nm (OD600) on a Tecan Safire 2 plate reader. All samples were run in duplicate or triplicate and assays were repeated at least once. Results are expressed as fraction of growth in the absence of compound and the mean and standard deviation are plotted. For the mold A. terreus, inoculum was 10^4 cells per ml and plates were incubated at 35° C. for 48 hours in the dark. Plates were then visually scored as specified by CLSI document M38-A2 to determine the MIC50 and MIC80.
(§2) The following gepinacin analogs were tested for activity against Gwt1. Gepinacin, M3, CM2, CM4, CM6, CM7, CM8, and 857621-56-8 were available commercially. The compounds were tested using the “Antifungal Susceptibility Testing” protocol described above. Fungi tested are described in the “Fungal Strains” section above.

Gwt1 = biological target: T1, Gwt1 (Saccharomyces cerevisiae, UniProt P47026); assay: Antifungal susceptibility testing, screening strains with plasmid-borne GWT1 (low or high copy); format: cell-based, S. cerevisiae
T1 construct: Wildtype S. cerevisiae BY4741; endogenous in cells; host or cells: S. cerevisiae BY4741 (wild type)
T1 sequence (P47026 1-490): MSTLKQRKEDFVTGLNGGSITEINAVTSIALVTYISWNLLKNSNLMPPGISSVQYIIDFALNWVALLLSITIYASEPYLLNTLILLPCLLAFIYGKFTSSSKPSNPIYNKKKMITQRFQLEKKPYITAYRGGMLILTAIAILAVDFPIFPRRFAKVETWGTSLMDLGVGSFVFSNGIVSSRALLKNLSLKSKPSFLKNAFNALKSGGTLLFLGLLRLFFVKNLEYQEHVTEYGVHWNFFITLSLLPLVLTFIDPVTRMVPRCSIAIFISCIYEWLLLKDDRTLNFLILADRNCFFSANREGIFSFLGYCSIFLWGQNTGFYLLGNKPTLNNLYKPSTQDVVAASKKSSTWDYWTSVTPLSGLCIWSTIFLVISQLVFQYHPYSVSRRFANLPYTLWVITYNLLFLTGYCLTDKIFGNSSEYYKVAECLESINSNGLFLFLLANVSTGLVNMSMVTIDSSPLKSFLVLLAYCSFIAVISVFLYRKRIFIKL
Procedure: as §1
Because GWT1 deletion is lethal in S. cerevisiae strain BY4741, a haploid shuttle strain was constructed in which the genomic copy of GWT1 was deleted and replaced by GWT1 on a plasmid that also encoded the URA3 gene and a G418-resistance gene. To construct this shuttle strain a gwt1Δ/GWT1 heterozygous deletion mutant was transformed with pAGGPD416-GWT1, sporulated and dissected. A colony was selected that grew on both SD-URA and G418-containing plates. PCR with the deletion specific primers (http://wwwsequence.stanford.edu/group/yeast_deletion_project/deletions3.html) was performed to confirm the GWT1 deletion. To change the source of GWT, this shuttle strain was transformed with plasmids containing GWT1 (as a control) or PIG-W and the LEU2 auxotrophy gene followed by selection for growth on SD-LEU plates. Plasmids were constructed by conventional Gateway technology using a GWT1 encoding entry vector and either pAG415GPDccdB or pAG425GPDccdB as the destination vectors. Positive colonies were selected and grown on 5-fluoroorotic acid (5-FOA)-containing plates to promote loss of the pAGGPD416-GWT1 plasmid. The colonies from this plate were then tested for return of uridine auxotrophy to confirm pAGGPD416-GWT1 loss. The PIG-W expression vector was constructed by recombination in yeast as follows. The pAG415GPDccdB vector was cut with Xho1 and Xba1 and the larger piece was gel and column purified. The coding sequence of PIG-W was PCR amplified from the entry clone so that it would have ends facilitating recombination with the cut vector. The shuttle strain was then transformed with these two DNA fragments and plated on SD-LEU plates to select for recombinants. PIG-W plasmid was isolated from the final strain and sequence verified.
as §2
An S. cerevesiae strain was generated in which the endogenous Gwt1 gene was deleted. Plasmids (either high copy or low copy) with either S. cerevesiae or human Gwt1 were introduced to produce strains bearing such plasmids expressing either S. cerevesiae or human Gwt1 from a constitutive promoter. Yeast strains were cultured in liquid media in the presence of indicated compounds. Shown in FIGS. 22A-D show the effect of the indicated compounds on growth (assessed by OD600) and viability (assessed using Bactiter Glo) of the yeast strain with high copy or low copy plasmid containing S. cerevesiae Gwt1. The compounds had no effect on strains with the human Gwt1, thus showing the compounds' sensitivity for the fungal (yeast) Gwt1 gene.

[2] = system: unfolded protein response; assay: Unfolded protein response GFP reporter (UPRE-GFP), flow cytometry; format: cell-based, S. cerevisiae; details: 5 hours
Procedure: Induction of the unfolded protein response in cells carrying a GFP reporter construct was monitored by flow cytometry after exposure to serial dilutions of the indicated compounds for 5 hrs.
The plasmid pRS304-4XUPRE-GFP was linearized and integrated into the TRP1 locus of S. cerevisiae (W303) to construct a reporter strain as previously described (Cox, et al. (1993) Cell 73, 1197-1206; Pollard, et al. (1998) Mol Cell 1, 171-182). Reporter cells were grown to log phase and exposed to compound at 23° C. for 5 hours before analysis. GFP reporter induction was monitored on a Guava EasyCyte Plus cytometer. The average mean channel fluorescence of duplicate samples was determined, and the experiment was performed twice with similar results.

PIG-W = biological target: T2, PIG-W (Homo sapiens, UniProt Q7Z7B1); assay: Growth of S. cerevisiae strain whose GWT1 is replaced by the human gene PIG-W; format: cell-based
T2 construct: expressed in transfected cells; host or cells: S. cerevisiae BY4741-derived gwt1 deletion shuttle strain carrying a pAG415GPD-based PIG-W plasmid
T2 sequence (Q7Z7B1 1-504): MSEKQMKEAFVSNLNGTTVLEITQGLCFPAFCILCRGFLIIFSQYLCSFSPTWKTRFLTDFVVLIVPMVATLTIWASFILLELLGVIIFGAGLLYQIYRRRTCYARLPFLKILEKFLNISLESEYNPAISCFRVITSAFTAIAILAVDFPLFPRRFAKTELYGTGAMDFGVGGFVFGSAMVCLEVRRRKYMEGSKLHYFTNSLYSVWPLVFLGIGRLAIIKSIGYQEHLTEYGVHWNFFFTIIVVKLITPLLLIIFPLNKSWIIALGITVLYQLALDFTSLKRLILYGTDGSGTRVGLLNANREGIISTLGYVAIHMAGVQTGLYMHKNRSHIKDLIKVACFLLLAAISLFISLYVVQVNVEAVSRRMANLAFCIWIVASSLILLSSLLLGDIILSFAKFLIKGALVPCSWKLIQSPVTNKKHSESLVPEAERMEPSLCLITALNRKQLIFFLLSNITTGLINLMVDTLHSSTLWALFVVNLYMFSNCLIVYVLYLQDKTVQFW
Procedure: as §1
Because GWT1 deletion is lethal in S. cerevisiae strain BY4741, a haploid shuttle strain was constructed in which the genomic copy of GWT1 was deleted and replaced by GWT1 on a plasmid that also encoded the URA3 gene and a G418-resistance gene. […]
An S. cerevesiae strain was generated in which the endogenous Gwt1 gene was deleted. […] Shown in FIGS. 22A-D show the effect of the indicated compounds on growth (assessed by OD600) and viability (assessed using Bactiter Glo) of the yeast strain with high copy or low copy plasmid containing S. cerevesiae Gwt1. […]

[3] = system: S. cerevisiae strains deleted for IRE1 or HAC1; assay: Antifungal susceptibility testing of UPR-deficient strains; format: cell-based; details: 48 hour
Procedure: (§3) (A) Immunoblots of lysates prepared from S. cerevisiae treated with gepinacin showing GPI-anchor-selective impairment of protein maturation. The unprocessed (u), precursor (p), and mature (m) forms of the reporter proteins are indicated. The identity of the tagged reporter proteins (top of panel) and the antibodies used for their detection (bottom of panel) are also indicated. Treatment conditions are DMSO (0.05%), gepinacin (GPN, 10 μM) or tunicamycin (Tun, 10 μM). The same lysate was used for both blots. […] GFP expression was monitored by flow cytometry. (C) Anti-fungal susceptibility testing of strains deleted for IRE1 (activator of the UPR) or HAC1 (effector of the UPR) showing their increased sensitivity to gepinacin.
Anti-fungal susceptibility testing of strains bearing deletion of IRE1 (activator of the UPR) or HAC1 (effector of the UPR) using either […] (A) or fluconazole (B). Growth was measured by OD600 after 48 hour exposure to serial dilutions of the compounds as indicated. Results are expressed as a fraction of the OD600 measured in the absence of gepinacin. The mean and standard deviation of triplicate determinations are shown.

Gas1 and CPY maturation = assay: Protein trafficking analysis (immunoblot of reporter proteins); format: cell-based, S. cerevisiae; details: 10 μM, 1 hour
Procedure: as §3
HA-tagged GAS1 was expressed in strain BY4741 CPY-GFP (Yeast GFP collection (Huh, et al. (2003) Nature 425, 686-691) under control of its own promoter using plasmid pCM-HA-GAS1. This construct was created as previously reported except in a gateway plasmid backbone (Fujita, et al. (2006) Mol Biol Cell 17, 834-850). To assess effects on trafficking, strains were incubated for 1 hour at 30° C. with test compounds. Total cellular protein (5 μg) was separated by electrophoresis (Invitrogen 8% gels) and transferred to nitrocellulose membranes. Blots were hybridized with antibodies against HA (Covance), GFP (Roche), or CPY (Invitrogen). Sizes for the various post-translationally modified products of Gas1HA2 and CPY have been previously reported (Fujita, et al. (2006) Mol Biol Cell 17, 834-850). CPY-GFP was used to facilitate discrimination of CPY processing steps because GFP is cleaved from CPY in the yeast vacuole. The experiment, however, was also performed with untagged CPY with the same results.

[4] = EC50 High Copy GWT1, Screening strains, high copy GWT1 plasmid
[5] = EC50 Low Copy GWT1, Screening strains, low copy GWT1 plasmid

Molecule | EC50 (Gwt1; [4]) | EC50 (Gwt1; [5]) | activation of the unfolded protein response (GFP reporter) [2] | further results
COc1ccc(NC(=O)COc2cccc(OCC(C)C)c2)cc1 [LW16] | 1.17 µM and 1.89 µM and 8.6 µM |  |  | EC50 ([1]; Wildtype S. cerevisiae BY4741): 2.9 µM
COc1ccc(NC(=O)COc2cccc(Oc3ccccn3)c2)cc1 [MAZ1859] | 7.2 µM | 4.9 µM |  | 
CC(C)COc1cccc(OCC(=O)Nc2ccc(F)cc2)c1 [CM2] | 3.07 µM | 1.16 µM |  | EC50 ([1]; Wildtype S. cerevisiae BY4741): 7.05 µM
CC(C)COc1cccc(OCC(=O)Nc2ccc(N(C)C)cc2)c1 [CM3] |  |  |  | EC50 [1]: 18.2 µM
CC[C@H](C)C[C@H](C)CCCCCCCCC(=O)N[C@H]1C[C@@H](O)[C@@H](NCCN)NC(=O)[C@@H]2[C@@H](O)CCN2C(=O)[C@H]([C@H](O)CCN)NC(=O)[C@H]([C@H](O)[C@@H](O)c2ccc(O)cc2)NC(=O)[C@@H]2C[C@@H](O)CN2C(=O)[C@H]([C@@H](C)O)NC1=O [caspofungin] |  |  | not seen | 
COc1ccc(NC(=O)C(C)Oc2cccc(OCc3ccccc3)c2)cc1 (stereo not drawn) [MAZ1844] |  |  |  | activity against Gwt1 (Gwt1): not Gwt1; activity against PigW / in the PIG-W expressing strain (PIG-W): active
COc1ccc(NC(=O)C(C)Oc2cccc(OCC(C)C)c2)cc1 (stereo not drawn) [MAZ1855] | 93.1 µM | 12.8 µM |  | 
OC(Cn1cncn1)(Cn1cncn1)c1ccc(F)cc1F [fluconazole, reference compound] |  |  | not seen | change of toxicity by deletion of HAC1 or IRE1 [3]: completely unaffected
COc1ccc(NC(=O)COc2cccc(OCc3ccccc3)c2)cc1 [MAZ1857] | 268 µM | 177 µM |  | 
tunicamycin [reference compound] |  |  | Strong induction | CPY (not GPI-anchored) processing (Gas1 and CPY maturation): alters the processing of both proteins; Gas1 (GPI-anchored) maturation: mature versus precursor form (Gas1 and CPY maturation): alters the processing of both proteins
C[C@@H]1[C@H](O)[C@@H](C)/C=C/C=C/C=C/C=C/C=C/C=C/C=C/[C@H](O[C@@H]2O[C@H](C)[C@@H](O)[C@H](N)[C@@H]2O)C[C@@H]2O[C@](O)(C[C@@H](O)C[C@@H](O)[C@H](O)CC[C@@H](O)C[C@@H](O)CC(=O)O[C@H]1C)C[C@H](O)[C@H]2C(=O)O [amphotericin B] |  |  | not seen | 
COc1ccc(NC(=O)COc2cccc(OCCC(C)C)c2)cc1 [CM7] | 6.2 µM | 1.31 µM |  | EC50 ([1]; Wildtype S. cerevisiae BY4741): 2.65 µM
